Data reported in US20240384268A1, “Oligonucleotides” (Hudson Institute of Medical Research, priority 2021, published 2024).
l = locked nucleic acid (LNA); d = 2'-deoxy (DNA)

Experiments:
STING = biological target: T1, STING (Homo sapiens, UniProt Q86WV6); assay: STING agonist (GSK, DMXAA)-driven IP-10 in MG-63 cells and immortalised mouse BMDMs; format: cell-based; settings: C2-Mut1 500 nM 6 h (GSK 100 nM, DMXAA 50 μg/ml); MOE/LNA ASOs 1 mM as printed (GSK, MG-63)
T1 construct: host or cells: MG-63 (human osteosarcoma)
T1 sequence (Q86WV6 whole entry): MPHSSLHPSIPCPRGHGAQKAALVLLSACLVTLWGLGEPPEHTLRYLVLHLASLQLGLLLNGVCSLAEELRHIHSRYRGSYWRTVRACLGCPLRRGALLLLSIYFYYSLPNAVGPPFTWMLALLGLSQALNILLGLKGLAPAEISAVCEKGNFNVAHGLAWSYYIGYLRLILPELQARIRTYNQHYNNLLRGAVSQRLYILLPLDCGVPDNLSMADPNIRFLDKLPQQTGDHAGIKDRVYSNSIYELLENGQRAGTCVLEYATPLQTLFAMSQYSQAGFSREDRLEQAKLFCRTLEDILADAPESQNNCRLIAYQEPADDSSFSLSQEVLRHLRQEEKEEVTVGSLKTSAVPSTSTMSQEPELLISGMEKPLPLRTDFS

cGAS [1] = biological target: T2, cGAS (Homo sapiens, UniProt Q8N884); assay: ISD70-driven IP-10 production in MG-63 cells; format: cell-based; set-up: endogenous in cells
T2 sequence (Q8N884 whole entry): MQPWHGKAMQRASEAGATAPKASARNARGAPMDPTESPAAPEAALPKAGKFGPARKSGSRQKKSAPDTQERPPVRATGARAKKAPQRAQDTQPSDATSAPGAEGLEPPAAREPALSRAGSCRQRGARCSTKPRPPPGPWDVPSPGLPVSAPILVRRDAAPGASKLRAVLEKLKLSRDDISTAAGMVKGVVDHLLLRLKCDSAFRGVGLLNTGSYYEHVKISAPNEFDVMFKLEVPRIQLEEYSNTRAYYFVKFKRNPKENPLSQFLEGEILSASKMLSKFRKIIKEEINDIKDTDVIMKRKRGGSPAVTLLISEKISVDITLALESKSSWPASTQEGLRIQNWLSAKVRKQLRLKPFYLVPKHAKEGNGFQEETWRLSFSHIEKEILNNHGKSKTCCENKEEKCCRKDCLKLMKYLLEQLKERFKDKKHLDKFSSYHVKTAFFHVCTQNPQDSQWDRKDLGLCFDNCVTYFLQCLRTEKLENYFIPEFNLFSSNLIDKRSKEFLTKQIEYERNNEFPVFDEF

TLR3 = biological target: T3, TLR3 (Homo sapiens, UniProt O15455); assay: pIC-driven IP-10 in MG-63 cells; format: cell-based; set-up: host or cells: MG-63 (human osteosarcoma); settings: 1 mM ASO as printed, single preliminary experiment
T3 sequence (O15455 24-904): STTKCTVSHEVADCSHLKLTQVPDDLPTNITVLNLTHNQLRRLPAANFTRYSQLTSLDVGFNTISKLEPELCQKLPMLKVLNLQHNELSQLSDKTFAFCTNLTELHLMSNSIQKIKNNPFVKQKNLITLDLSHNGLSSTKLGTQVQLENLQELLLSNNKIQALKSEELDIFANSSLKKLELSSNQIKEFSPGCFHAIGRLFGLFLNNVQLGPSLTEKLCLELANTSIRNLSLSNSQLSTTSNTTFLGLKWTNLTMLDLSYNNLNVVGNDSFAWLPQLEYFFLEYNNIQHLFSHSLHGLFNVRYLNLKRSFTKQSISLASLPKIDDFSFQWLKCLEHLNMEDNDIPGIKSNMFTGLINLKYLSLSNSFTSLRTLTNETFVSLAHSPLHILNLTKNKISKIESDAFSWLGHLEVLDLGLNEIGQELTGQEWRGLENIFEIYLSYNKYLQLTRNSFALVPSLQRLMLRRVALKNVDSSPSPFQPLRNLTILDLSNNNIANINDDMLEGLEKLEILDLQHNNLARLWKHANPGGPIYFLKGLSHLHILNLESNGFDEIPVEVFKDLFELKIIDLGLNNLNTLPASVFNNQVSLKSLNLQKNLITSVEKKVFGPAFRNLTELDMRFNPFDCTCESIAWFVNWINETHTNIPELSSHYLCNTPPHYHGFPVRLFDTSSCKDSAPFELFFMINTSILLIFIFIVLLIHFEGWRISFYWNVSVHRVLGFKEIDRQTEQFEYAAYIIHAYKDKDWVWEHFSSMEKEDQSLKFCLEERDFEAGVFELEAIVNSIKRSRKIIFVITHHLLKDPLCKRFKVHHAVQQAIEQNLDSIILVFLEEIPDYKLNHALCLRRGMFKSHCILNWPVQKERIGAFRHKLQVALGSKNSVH
Procedure: FIG. 25: MG-63 were pre-treated for […] with […] indicated concentrations of ASOs (except for B3 and HPRT847Mut, used at 500 nM), prior to overnight transfection with ISD, stimulation with […] pIC or 100 nM GSK (Valentin et al., 2021). IP10 levels were measured and normalised to GSK only condition, after background correction. Data shown are from a single experiment in biological triplicate (+/−SEM).

cGAS [2] = biological target: T2, cGAS; assay: ISD70-driven IP-10 (and IFN-β) production in THP-1 cells, ELISA; format: cell-based; set-up: endogenous in cells; host or cells: THP-1 (undifferentiated); settings: THP-1
cGAS [3] = biological target: cGAS (Mus musculus, UniProt Q8C6L5); assay: ISD-driven IP-10 production in immortalised mouse BMDMs; format: cell-based; set-up: endogenous in cells; host or cells: immortalised wild-type mouse bone marrow macrophages (iBMDMs); settings: iBMDMs, 500 nM ASO
Sequence of cGAS (Mus musculus, UniProt Q8C6L5) (Q8C6L5 whole entry): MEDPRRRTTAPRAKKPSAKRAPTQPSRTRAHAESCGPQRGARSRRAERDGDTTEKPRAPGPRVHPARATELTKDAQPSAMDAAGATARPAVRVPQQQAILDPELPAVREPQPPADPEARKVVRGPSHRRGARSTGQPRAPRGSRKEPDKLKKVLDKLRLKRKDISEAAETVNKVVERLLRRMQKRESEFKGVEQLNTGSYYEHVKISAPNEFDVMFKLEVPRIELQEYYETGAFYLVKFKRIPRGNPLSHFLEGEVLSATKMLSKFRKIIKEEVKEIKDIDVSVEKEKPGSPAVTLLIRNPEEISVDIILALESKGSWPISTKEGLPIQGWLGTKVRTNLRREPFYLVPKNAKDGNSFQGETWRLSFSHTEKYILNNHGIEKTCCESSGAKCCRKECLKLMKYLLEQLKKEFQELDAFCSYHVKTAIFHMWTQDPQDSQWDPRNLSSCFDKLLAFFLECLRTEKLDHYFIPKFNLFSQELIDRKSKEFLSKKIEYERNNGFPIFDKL

mouse cGAS = biological target: T4, mouse cGAS (Mus musculus, UniProt Q8C6L5); assay: ISD45-driven ISRE-luciferase in mouse LL171 cells; format: cell-based; settings: 2′OMe or PS oligos 50-600 nM, ISD45 2.5 μg/ml overnight
T4 construct: endogenous in cells; host or cells: LL171 (mouse L929 cells with ISRE-Luciferase)
T4 sequence (Q8C6L5 whole entry): as above
Procedure: In such examples, inhibition of cGAS activity can be identified by observation of an overall decreased cGAS response of the cell population, or a lower proportion of cells having cGAS-positive activity as compared to positive control condition in which cells are treated with cGAS agonist in the absence of the oligonucleotide (or in the presence of an appropriate control inhibitory agent). In one example, THP-1 or HT-29 cells are transfected with ISD70 and incubated with an oligonucleotide. cGAS activity can then be determined by cytokine (e.g., IP-10 and/or IFNβ) expression (e.g., gene and/or protein expression) and/or secretion levels, such as by ELISA. A similar assay can be performed with LL171 cells transfected with ISD45. […] By way of example, cGAS enzymatic activity may be assessed in vitro using recombinant cGAS and then measuring activity thereof by way of a cGAMP ELISA.
For cGAS stimulations, cells were treated for indicated duration with ASOs, prior to transfection with ISD70 (human cells) or ISD45 (mouse cells) (the ASOs were not washed off prior to ISD transfection unless otherwise indicated). The cGAS ligands ISD45 (Stetson and Medzhitov, 2006) and ISD70 (also known as VACV-70 (Unterholzner et al., 2010)) (Table 1) were resuspended as follows: 5 1d of sense and 5 μl of antisense strands at 10 μg/μl were added to 90 μl PBS under sterile conditions, heated at 75° C. for 30 min, prior to letting cool down at room temperature and aliquoting (stock at 1 μg/1 l). The ISDs were transfected at a concentration of […] at a ratio of 1 μg:1 μl with Lipofectamine 2000 in Opti-MEM (Thermo Fisher Scientific). HEK-TLR3, HEK-TLR7 and […] were treated with indicated concentration of ASOs for 20-50 min, prior to stimulation with poly(I:C) (Invivogen), R848 (Invivogen), Motolimod (MedChemExpress) and the Class B CpG oligonucleotides ODN 2006 (synthesised by IDT and resuspended in RNase-free TE buffer [Table 1]), respectively. The TLR2/1 agonist PAM3CSK4 (Invivogen), the TLR4 agonist lipopolysaccharide (Invivogen), the Class B CpG oligonucleotides ODN 1826 (synthesised by IDT and resuspended in RNase-free TE buffer), the mouse Sting agonist DMXAA (Cayman) and the human STING agonist (compound #3 from (Raanjulu et al., 2018), referred to as GSK herein—kind gift from Cancer Therapeutics CRC, Australia) were used at indicated concentrations. Aspirin (Sigma—A2093) was resuspended in pure medium to 10 mM, filter sterilised and added to the cells at 2 mM final. All ASOs were synthesised by Integrated DNA Technologies (IDT), and resuspended in RNase-free TE buffer, pH 8.0 (Thermo Fisher Scientific). Cell viability was assessed by adding 1× fresh resazurin solution to the wells (10λ solution made up with 7 mg resazurin [Sigma—R7017] dissolved in 3.5 ml PBS, sterile filtered at […]) for 4 h, prior to reading at with a Fluostar OPTIMA (BMG LABTECH) plate-reader (fluorescence: Excitation 535 nm, Emission 590); wells with medium only and 1× resazurin were used as blanks.
Following transfection, the cells were collected from the 6-wells and aliquoted into 96-wells, just before ASO and overnight TLR stimulation (as above described).

HPRT = HPRT mRNA levels in SV40T hTERT fibroblasts, RT-qPCR; format: cell-based, human; settings: 100 nM ASO transfected overnight
cGAS [4] = biological target: T2, cGAS; assay: IFN-driven gene expression in BJ hTERT SV40T fibroblasts (constitutive cGAS activation), RT-qPCR; settings: ASO transfected 20-100 nM overnight

inhibition of ISD sensing in MG-63, 2′OMe ASOs (in words) (cGAS [1]; C2-Mut1 500 nM 6 h, or ASO847 series ~30 min, ISD70 overnight) | inhibition of ISD70-driven IP-10 production (in words) (cGAS [2]; 2′OMe or PS oligos, 100-250 nM, pre-treatment as in figure legends, ISD70 2.5 μg/ml) | inhibition of constitutively expressed ISGs (IFIT1, IFIT2, IFI44; in words) (cGAS [4]) | Substance | IP-10 production driven by STING synthetic agonists (in words) (STING) | IP-10 driven by ISD in MG-63, higher dose (in words) (cGAS [1]; 1 mM ASO as printed, single preliminary experiment (FIG. 25)) | IP-10 after ISD in MG-63, MOE and LNA ASOs (in words) (cGAS [1]; indicated concentrations up to 500 nM, ~30 min, ISD overnight (FIG. 24)) | IP-10 driven by TLR3 engagement with polyI:C in MG-63 (in words) (TLR3) | IC50 (cGAS [2]; ~30 min pre-treatment, ISD70 overnight (FIG. 27), read-out: IC50 (IP-10 after ISD70 transfection), MOE and LNA ASOs) [nM] | ISD-induced IP-10 in immortalised mouse BMDMs (in words) (cGAS [3]; ISD overnight) | IP-10 induced by the ASO transfected alone, no ISD (in words) (cGAS [3]; lipofectamine only (Mock)) | inhibition of ISD45-driven ISRE-luciferase (in words) (mouse cGAS) | HPRT mRNA levels (in words) (HPRT)
 |  |  | +C*+G*+C*T*T*T*T*C*T*C*T*C*C*+G*+G*+T (CGCTTTTCTCTCCGGT; sugars from the 5' end l3 d10 l3, all phosphorothioate, methylation of C not given here) [A1-Mut] | not that driven by direct stimulation of STING | only reduced IP-10 driven by ISD | significantly reduced IP-10 levels | only reduced IP-10 driven by ISD | 75 | did not significantly potentiate IP-10 production | induced low level IP-10 |  | 
much better inhibitor of cGAS | much better inhibitor of cGAS | as potent as C2-Mutl | mG*mG*mU* mA*mU*mA* mG*mG*A* C*T*C* C*A*G* A*T*G* mU*mU*mU* mC*mC [HPRT-2OMe-847-Mut1] |  |  |  |  |  |  |  | better inhibitor against mouse cGAS activation | still able to reduce HPRT levels
